Data published in US20240368120A1 (Terns Pharmaceuticals, Inc., priority 2023, published 2024).

How the values were obtained:
human GLP-1R receptor = target: T1, human GLP-1R receptor (Homo sapiens, UniProt P43220); assay: GLP-1R low expression cell assay (cAMP TR-FRET, CHO-K1_hGLP-1Rlow_clone10 cells); type: cell-based; settings: for EC50: cAMP TR-FRET, 30 min at 25° C.; for Emax: maximum activation relative to control GLP-1 peptide agonist
T1 construct: expressed in transfected cells
Procedure, shortened: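 Readout is cAMP TR-FRET after 30 min compound stimulation at 25 °C of a low-GLP-1R-expressing CHO-K1 clone (1,000 cells/well), with 10-point 3-fold serial dilutions. Percent activation versus a control GLP-1 peptide, from duplicates, was Hill-fitted to give EC50.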

[1] = Rat pharmacokinetics, oral dosing; type: in vivo, Sprague-Dawley rats; settings: male, Sprague-Dawley, oral dosing at 3 mg/kg, plasma; for half-life: read-out: Rat T1/2
Procedure: Intravenous dosing: Compounds were formulated at 1.0 mg/mL in a solution comprising 5% polyethylene glycol 400 and 95% (12% (w/v) sulfobutyl-β-cyclodextrin in water) (v/v). Formulated compounds were sterile filtered through a 0.22 micron filter before dosing. Compounds were administered to male, 7-11-week-old Sprague-Dawley rats by jugular vein cannula infusion over 30 minutes at a dose of 1 mg/kg. Oral dosing: Compounds were formulated at 1.0 mg/mL in a solution comprising 5% polyethylene glycol 400 and 95% (12% (w/v) sulfobutyl-β-cyclodextrin in water) (v/v). Formulated compounds were administered to male, 7-11 week old Sprague-Dawley rats by oral gavage at a dose of 10 mg/kg or 3 mg/kg.
Sample collection: Blood collections of about 0.2 mL per time point were performed from jugular vein or other suitable site of each animal, into pre-chilled commercial EDTA-K2 tubes and placed on wet ice until centrifugation. Blood samples were processed for plasma by centrifugation at approximately 4° C., 3,200 g for 10 min. Plasma was collected and transferred into pre-labeled 96 well plate or polypropylene tubes, quick frozen over dry ice and kept at −60° C. or lower until
Data analysis: Plasma concentration versus time data was plotted in graph and analyzed by non-compartmental approaches using the Phoenix WinNonlin 6.3 software program. Related PK parameters were calculated according to dosing route, e.g., CL, Vdss and C0 for intravenous administration, Cmax, Tmax or % F for extravascular administration, and T1/2, AUC(0-t), AUC(0-inf), MRT(0-t), MRT(0-inf) for all routes.

T1 sequence (P43220 24-463): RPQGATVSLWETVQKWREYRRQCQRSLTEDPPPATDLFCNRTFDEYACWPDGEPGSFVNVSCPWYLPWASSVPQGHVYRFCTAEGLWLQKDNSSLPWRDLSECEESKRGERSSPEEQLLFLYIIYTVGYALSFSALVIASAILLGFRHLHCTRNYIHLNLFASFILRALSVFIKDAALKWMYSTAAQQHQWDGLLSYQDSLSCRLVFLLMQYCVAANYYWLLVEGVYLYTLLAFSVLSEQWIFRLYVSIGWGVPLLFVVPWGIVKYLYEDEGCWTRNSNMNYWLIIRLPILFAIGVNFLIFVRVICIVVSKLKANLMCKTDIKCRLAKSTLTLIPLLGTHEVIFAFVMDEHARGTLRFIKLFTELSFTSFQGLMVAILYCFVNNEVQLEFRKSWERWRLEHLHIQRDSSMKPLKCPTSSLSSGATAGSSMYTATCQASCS

Structure (SMILES)	EC50 (human GLP-1R receptor) [nM]	AUC [1] [ng·h/mL]	Cmax [1] [ng/mL]	half-life [1] [h]	bioavailability [1] [%]	Emax (human GLP-1R receptor) [%]
Cn1c(CN2CCC(c3cccc4c3OC(c3ccc(Cl)cc3F)C=C4)CC2)nc2c(OC(F)F)cc(C(=O)O)cc21 (single isomer, unassigned) [Compound 176]	100 to 1000	500 to 2500	< 500	< 1.5	25 to 50	–
Cn1c(CN2CCC(c3cccc4c3O[C@@H](c3ccc(Cl)cc3F)CO4)CC2)nc2c(OCCF)cc(C(=O)O)cc21 [Compound 299, (S)-2-((4-(3-(4-chloro-2-fluorophenyl)-2,3-dihydrobenzo[b][1,4]dioxin-5-yl)piperidin-1-yl)methyl)-4-(2-fluoroethoxy)-1-methyl-1H-benzo[d]imidazole-6-carboxylic acid]	< 10	500 to 2500	< 500	1.5 to 2.5	50 to 85	> 85
C[C@]1(c2ccc(Cl)cn2)Oc2cccc(C3CCN(Cc4nc5c(OC6CC6)cc(C(=O)O)cc5n4Cc4cncs4)CC3)c2O1 [Compound 6, (S)-2-((4-(2-(5-chloropyridin-2-yl)-2-methylbenzo[d][1,3]dioxol-4-yl)piperidin-1-yl)methyl)-4-cyclopropoxy-1-(thiazol-5-ylmethyl)-1H-benzo[d]imidazole-6-carboxylic acid]	< 10	< 500	< 500	1.5 to 2.5	25 to 50	> 85
CC(F)(F)c1cc(C(=O)O)cc2c1nc(CN1CCC(c3cccc4c3O[C@](C)(c3ccc(Cl)cn3)O4)CC1)n2C[C@@H]1CCO1 [Compound 71, 2-((4-((R)-2-(5-Chloropyridin-2-yl)-2-methylbenzo[d][1,3]dioxol-4-yl)piperidin-1-yl)methyl)-4-(1,1-difluoroethyl)-1-(((S)-oxetan-2-yl)methyl)-1H-benzo[d]imidazole-6-carboxylic acid]	10 to 100	500 to 2500	500 to 1000	< 1.5	25 to 50	> 85
C[C@]1(c2ccc(Cl)cn2)Oc2cccc(C3CCN(Cc4nc5c(OCC6COC6)cc(C(=O)O)cc5n4C[C@@H]4CCO4)CC3)c2O1 [Compound 77, 2-((4-((S)-2-(5-chloropyridin-2-yl)-2-methylbenzo[d][1,3]dioxol-4-yl)piperidin-1-yl)methyl)-1-(((S)-oxetan-2-yl)methyl)-4-(oxetan-3-ylmethoxy)-1H-benzo[d]imidazole-6-carboxylic acid]	< 10	< 500	< 500	–	< 25	> 85
COc1cc(C(=O)O)cc2c1nc(CN1CC[C@@H](c3cccc4c3O[C@@](C)(c3ccc(Cl)cn3)O4)[C@@H]3C[C@@H]31)n2C[C@@H]1CCO1 [Compound 89, 2-(((1S,5R,6S)-5-((S)-2-(5-Chloropyridin-2-yl)-2-methylbenzo[d][1,3]dioxol-4-yl)-2-azabicyclo[4.1.0]heptan-2-yl)methyl)-4-methoxy-1-(((S)-oxetan-2-yl)methyl)-1H-benzo[d]imidazole-6-carboxylic acid]	< 10	< 500	< 500	1.5 to 2.5	25 to 50	> 85
Cn1c(CN2CCC(c3cccc4c3OC[C@@H](c3ccc(C#N)cc3F)O4)CC2)nc2c(OC(F)F)cc(C(=O)O)cc21 [Compound 300, (R)-2-((4-(2-(4-Cyano-2-fluorophenyl)-2,3-dihydrobenzo[b][1,4]dioxin-5-yl)piperidin-1-yl)methyl)-4-(difluoromethoxy)-1-methyl-1H-benzo[d]imidazole-6-carboxylic acid]	100 to 1000	–	2000 to 5000	≥ 2.5	> 85	> 85
COc1cc(C(=O)O)cc2c1nc(CN1CCC(c3cccc4c3O[C@@](C)(c3ccc(Cl)cn3)O4)CC1)n2C [Compound 85, (S)-2-((4-(2-(5-Chloropyridin-2-yl)-2-methylbenzo[d][1,3]dioxol-4-yl)piperidin-1-yl)methyl)-4-methoxy-1-methyl-1H-benzo[d]imidazole-6-carboxylic acid]	< 10	2500 to 10000	1000 to 2000	1.5 to 2.5	25 to 50	> 85

Now from value to molecule:

EC50 (human GLP-1R receptor) [nM]	AUC [1] [ng·h/mL]	Cmax [1] [ng/mL]	half-life [1] [h]	bioavailability [1] [%]	Emax (human GLP-1R receptor) [%]	Structure (SMILES)
< 10	2500 to 10000	2000 to 5000	≥ 2.5	50 to 85	> 85	COc1cc(C(=O)O)c(F)c2c1nc(CN1CCC(c3cccc(OCc4ccc(Cl)cc4F)n3)CC1)n2C [Compound 302, 2-((4-(6-((4-Chloro-2-fluorobenzyl)oxy)pyridin-2-yl)piperidin-1-yl)methyl)-7-fluoro-4-methoxy-1-methyl-1H-benzo[d]imidazole-6-carboxylic acid]
< 10	500 to 2500	500 to 1000	1.5 to 2.5	25 to 50	> 85	[2H]C([2H])(C)Oc1cc(C(=O)O)cc2c1nc(CN1CCC(c3cccc(OCc4ccc(C#N)cc4F)n3)CC1)n2C [Compound 295, 2-((4-(6-((4-Cyano-2-fluorobenzyl)oxy)pyridin-2-yl)piperidin-1-yl)methyl)-4-(ethoxy-1,1-d2)-1-methyl-1H-benzo[d]imidazole-6-carboxylic acid]
> 1000	< 500	< 500	≥ 2.5	< 25	50 to 85	Cn1c(CN2CCC(c3cccc4c3O[C@@H](c3ccc(C#N)cc3F)CO4)CC2)nc2c(OCCF)cc(C(=O)O)cc21 [Compound 294, (S)-2-((4-(3-(4-Cyano-2-fluorophenyl)-2,3-dihydrobenzo[b][1,4]dioxin-5-yl)piperidin-1-yl)methyl)-4-(2-fluoroethoxy)-1-methyl-1H-benzo[d]imidazole-6-carboxylic acid]
< 10	2500 to 10000	2000 to 5000	1.5 to 2.5	50 to 85	> 85	COc1cc(C(=O)O)cc2c1nc(Cc1cc(F)c(-c3cccc(OCc4ccc(C#N)cc4F)n3)cc1F)n2C [Compound 304, 2-(4-(6-((4-Cyano-2-fluorobenzyl)oxy)pyridin-2-yl)-2,5-difluorobenzyl)-4-methoxy-1-methyl-1H-benzo[d]imidazole-6-carboxylic acid]
< 10	2500 to 10000	1000 to 2000	1.5 to 2.5	50 to 85	> 85	COc1cc(C(=O)O)cc2c1nc(CN1CCC(c3cccc(OCc4ccc(C#N)cc4F)n3)CC1)n2C [Compound 308, 2-((4-(6-((4-Cyano-2-fluorobenzyl)oxy)pyridin-2-yl)piperidin-1-yl)methyl)-4-methoxy-1-methyl-1H-benzo[d]imidazole-6-carboxylic acid]
< 10	2500 to 10000	2000 to 5000	< 1.5	50 to 85	> 85	Cn1c(CN2CCC(c3cccc(OCc4ccc(C#N)cc4F)n3)CC2)nc2c(OC(F)F)cc(C(=O)O)cc21 [Compound 127, 2-((4-(6-((4-Cyano-2-fluorobenzyl)oxy)pyridin-2-yl)piperidin-1-yl)methyl)-4-(difluoromethoxy)-1-methyl-1H-benzo[d]imidazole-6-carboxylic acid]
< 10	–	2000 to 5000	1.5 to 2.5	50 to 85	> 85	Cn1c(CN2CCC(c3cccc(OCc4ccc(Cl)c5ccoc45)n3)CC2)nc2c(OC(F)F)cc(C(=O)O)cc21 [Compound 237, 2-((4-(6-((4-Chlorobenzofuran-7-yl)methoxy)pyridin-2-yl)piperidin-1-yl)methyl)-4-(difluoromethoxy)-1-methyl-1H-benzo[d]imidazole-6-carboxylic acid]
10 to 100	500 to 2500	500 to 1000	≥ 2.5	< 25	> 85	COc1cc(C(=O)O)c(F)c2c1nc(CN1CCC(c3cccc(OCc4ccc(C#N)cc4F)n3)CC1)n2C [Compound 303, 2-((4-(6-((4-Cyano-2-fluorobenzyl)oxy)pyridin-2-yl)piperidin-1-yl)methyl)-7-fluoro-4-methoxy-1-methyl-1H-benzo[d]imidazole-6-carboxylic acid]
< 10	2500 to 10000	2000 to 5000	1.5 to 2.5	25 to 50	> 85	[2H]C([2H])(C)Oc1cc(C(=O)O)cc2c1nc(CN1CCC(c3cccc(OCc4ccc(Cl)cc4F)n3)CC1)n2C [Compound 296, 2-((4-(6-((4-Chloro-2-fluorobenzyl)oxy)pyridin-2-yl)piperidin-1-yl)methyl)-4-(ethoxy-1,1-d2)-1-methyl-1H-benzo[d]imidazole-6-carboxylic acid]
